Key:
Format in all cases: cell-based, human
[1] = system: Sap-1; assay: DTT treatment of Sap-1 overexpressing COS7 cells, multimers on non-reducing gel
Description: Cells treated with DTT were serum-starved 8 hours after transfection (with PTP-Sap1 constructs or vector), and then incubated for 30 minutes in serum-free medium with various amount of DTT (Sigma). Before lysis in a buffer containing 150 mM iodoacetamide (“IODA” Sigma), cells were washed with ice cold PBS containing 50 mM iodoacetamide in order to block the free DTT. Samples were run under reducing and non-reducing conditions, with or without β-mercaptoethanol in the sample buffer, respectively.

[2] = system: Sap-1; assay: Chemical cross-linking of Sap-1 constructs in transfected COS7 cells (Western blot); conditions: for cross-linking of ECD-deleted Sap-1 / cross-linking of full-length (FL) Sap-1: anti-HA Western blot, FIG. 5
Description: COS 7 cells were transfected with the indicated construct and left for 24 hours at 37° C. Medium was changed and a solution of BS3 (Pierce) in PBS (2.5 mg/ml) or PBS alone was added, and left for 1 hour at 4° C. The cross-linking reaction was stopped by the addition of PBS that contained 0.15 M Tris pH 7.5 for 15 minutes at 4° C. Cells were finally lysed and the protein content was used for further analysis. The treatment with DSS (Pierce) was the same except that the product was dissolved in DMSO at a concentration of 25 mM (10×). It was then diluted in PBS and cells were incubated with 0.1×DMSO.

[3] = system: WiDr cells; assay: Streptolysin transfection of antisense ODN and BrdU proliferation assay; conditions: BrdU, streptolysin-O, ODN 1 mM final

O[C@H](CS)[C@H](O)CS (racemic) [DTT, Dithiothreitol]
reversibility of multimer disruption ([1]; 30 minutes at 50 mM DTT, washout, 15 minutes recovery without DTT): fully restored formation of the multimers
multimerized Sap-1 on non-reducing gel ([1]; cells incubated 30 minutes in DTT, FIG. 6B): dose-dependent decrease

O=C(CCCCCCC(=O)ON1C(=O)CC(S(=O)(=O)O)C1=O)ON1C(=O)CC(S(=O)(=O)O)C1=O (stereo not drawn) [BS3, Bis-Sulfosuccinimidyl-Suberate]
cross-linking of ECD-deleted Sap-1 [2]: no effect
cross-linking of full-length (FL) Sap-1 [2]: induces the formation of a complex with high MW
cross-linking of FLEX-Cterm Sap-1 construct ([2]; anti-Myc Western blot, FIG. 8A): efficiently cross-linked

O=C(CCCCCCC(=O)ON1C(=O)CCC1=O)ON1C(=O)CCC1=O [DSS, Di-Succinimidyl-Suberate]
cross-linking of membrane-associated ECD-deleted Sap-1 lacking transmembrane domain (lck myristoylation peptide) ([2]; FIG. 5B right panel): could not be cross-linked
cross-linking of ECD-deleted Sap-1 [2]: but not ECD-deleted Sap-1
cross-linking of full-length (FL) Sap-1 [2]: able to cross-link

AS2: antisense ODN to PTP-SAP1 mRNA: TGACCCGGGTCCAAGGCCAT (antisense TGACCCGGGTCCAAGGCCAT; chemistry not given here)
reduction of the proliferation [3]: 20%

Reference: patent publication US20060275299A1, “Use of protein tyrosine phosphatase inhibitors for prevention and/or treatment of cancer” (priority 2002, published 2006)
